Test system: men with the diagnosis of erectile dysfunction and chronic prostatitis
Test: Clinical study of the BAA versus its single components (IIEF questionnaire, patient diaries), medical center "Secrets of Longevity"
Assay type: in vivo, human
Settings: 2 tablets twice a day
Procedure: For the prevention of erectile dysfunction, the BAA in compound of L-Arginine—250 mg, drone brood—50 mg is taken by 2 tablets two times per day during one month out of meals. An interval during the intake is one month. […] The study included […] with the diagnosis of erectile dysfunction and chronic prostatitis, at the age from 30 to 50 years old (average age is 43). The duration of erectile dysfunction was from 6 months to 3 years (average duration is one year). A consent was received from all males participated in the study.
The experimental group (10 patients) was appointed to the proposed agent by 2 tablets twice a day in the morning hours. The 1-st experimental group (10 patients) was administered L-Arginine—250 mg, 2 tablets 2 times per day in the morning hours.
The 2-nd experimental group (10 patients) was administered drone brood—50 mg, 2 tablets 2 times per day in the morning hours. Patients' examination involved the checkup, collection of complains in accordance with the symptoms scale 1P88, and questionnaire of International Index of Erectile Function (IIEF), with consideration of objective factors: ultrasound investigation of prostate gland, clinical blood analysis, urine test, including the results of prostate gland palpation. Patients' examination took place before and after the agent prescription.
An efficiency of the claimed agent was evaluated by the change of IIEF's exponents. Within a week, prior to and during the course of agent intake, patients were keeping a diary of disease estimation, and they recorded the frequency and degree of sexual attraction, valuation of erection, frequency of sexual intercourse and their sensations in each case.

N=C(N)NCCC[C@H](N)C(=O)O [L-Arginine]
full sexual relations provided or not: not providing the full sexual relations | effect starts within ... after taking of the agent (irrespective of age and extent of sexual disorder): 2 to 3 h | erectile function (10 patients per group): 20% | feeling of orgasm, change of sensations (10 patients per group): 20% | number of ejaculations has grown up (share of cases) (10 patients per group): 20% | overall satisfaction (10 patients per group): 20% | refractory period after the emission of seminal fluid has not changed (share of patients) (10 patients per group): 100% | sexual intercourse satisfaction (10 patients per group): 20% | strengthening of sexual attraction (libido) recorded (share of cases) (10 patients per group): 100%

Source: patent US20140065237A1, “BIOLOGICALLY ACTIVE FOOD ADDITIVE FOR THE PROPHYLAXIS OF ERECTILE DYSFUNCTION IN MEN” (priority 2011, published 2014)
